Counter-ions that a name gives are not always drawn.
Assay: Excretion of radioactivity after single oral administration to male rats, target dose 1 mg free base/kg
Assay type: in vivo, Sprague Dawley rats
Parameters: Excretion of Radioactivity: unit not given beside the values
Description: [^14C] N,N,-diethyl-8,8-dipropyl-2-azaspiro[4,5]decane-2-propanamine dimaleate salt, (“Compound II”) with a specific activity of 91 uCi/mg and chemical purity >99%, and non-radiolabeled dimaleate salt of N,N,-diethyl-8,8-dipropyl-2-azaspiro[4,5]decane-2-propanamine dimaleate (Compound 1) chemical purity >98%, respectively, were used in this study. The site of the radiocarbon label in Compound II is depicted by an asterisk in Formula II. The non-radiolabeled material was used for reference purposes. The radiolabeled material was stored at ca […] in the dark and the non-radiolabeled material at ca −20° C. in the dark.
Three healthy male Sprague Dawley rats (Crl:CD(SD)BR), age ca 8-9 weeks, body weights at dosing 237-255 g, were supplied by Charles River (UK) Limited. The animals were housed in holding cages suitable for this species for 8 days prior to use. SDS Rat and Mouse Maintenance Diet No. 1, (Special Diets Services, Witham Essex), and mains quality water were available ad libitum throughout. The diet and water supplied to the animals were routinely analyzed for quality and no problems were detected. Holding and study areas had automatic control of light cycle and temperature. The actual range of temperature measured during the study was 17-25° C. with relative humidity measured at 60%.
The dose was prepared for oral administration on the day of dosing. […]
For each rat, an aliquot of the dose solution was administered orally by gavage. […] For each dose, the combined weight of dose and dosing equipment were recorded prior to dosing and the discharged dosing equipment was weighed after dosing. The concentration of radioactive material in each dose solution was also determined.
Immediately following dosing, the rats were placed into all glass metabolism cages suitable for the quantitative collection of excreta and expired air. All samples were collected into individual, uniquely labeled containers.
[…] The collection containers were cooled by solid CO2 during the first 48 hours after dosing.
[…] Collection containers were cooled by solid CO2 during the first 48 hours.
At the time of each feces collection, each cage was washed with water (ca 750 mL) and the washings were retained for radioassay. During the periods 0-24 h and 24-48 hours after dosing, expired air was passed through 2 serial traps containing ethanolamine:ethoxyethaonol (3:7, v/v) in order to effect the removal of CO2. The trap solvent was sampled for radioassay at the end of each collection period.
At 168 hours post dose, each animal was killed by CO2 narcosis and cervical dislocation. Gastrointestinal tracts were removed and retained separately from the carcasses in preparation for radioassay.
All urine and feces samples were stored frozen ([…]) prior to and after analysis. Cage washes were stored at room temperature until analysis was complete and were then discarded. All carcasses and gastro-intestinal tracts were stored frozen at ca-20° C. prior to analysis.
Duplicate aliquots of urine (ca 0.3 mL) and cage washings (ca 1 mL) were dispensed, diluted to 1 mL with distilled water (if considered necessary) and mixed with Quickzint 1 scintillation fluid (10 mL; Zinsser Analytic Maidenhead, UK).
Feces were homogenised in 1 to 2 volumes of water with the sample and homogenate weight recorded. Duplicate aliquots (ca 0.3) were taken from each sample and dispensed onto combustopads contained in combustocones (Can berra Packard Limited, Pangbourne, UK). When dry, these samples were combusted using a Packard Tri-Carb 306 Automatic Sample Oxidiser. The resultant ^14CO2 generated was collected by absorption in Carbo-Sorb® (8 mL; Can berra Packard Limited) to which Permafluor®E^+ scintillation fluid (10 mL; Can berra Packard Limited) was added.
For each rat, the carcass and gastro-intestinal tract with contents were solubilised in Soluene 350 (Canberra Packard). When dissolved, portions of the digest (ca 0.1 mL) were taken for liquid scintillation spectrometry. […]

CCCC1(CCC)CCC2(CCN(CCCN(CC)CC)C2)CC1 [Compound II, [^14C] N,N,-diethyl-8,8-dipropyl-2-azaspiro[4,5]decane-2-propanamine dimaleate salt]
Dose recovered in expired air (0-48 hours collection): Less than 0.2%
Excretion of Radioactivity (Cage Wash 0-24 hours, #1 male): 0.1
Excretion of Radioactivity (Cage Wash 0-24 hours, #2 male): 0.1
Excretion of Radioactivity (Cage Wash 0-24 hours, #3 male): *<0.1
Excretion of Radioactivity (Cage Wash 0-24 hours, Mean): ^+0.1
Excretion of Radioactivity (Cage Wash 0-168 hours, #1 male): 0.7
Excretion of Radioactivity (Cage Wash 0-168 hours, #2 male): 1.0
Excretion of Radioactivity (Cage Wash 0-168 hours, #3 male): 1.3
Excretion of Radioactivity (Cage Wash 0-168 hours, Mean): 1.0
Excretion of Radioactivity (Cage Wash 24-48 hours, #1 male): 0.1
Excretion of Radioactivity (Cage Wash 24-48 hours, #2 male): <0.1
Excretion of Radioactivity (Cage Wash 24-48 hours, #3 male): 0.1
Excretion of Radioactivity (Cage Wash 24-48 hours, Mean): 0.1
Excretion of Radioactivity (Cage Wash 48-72 hours, #1 male): <0.1
Excretion of Radioactivity (Cage Wash 48-72 hours, #2 male): 0.2
Excretion of Radioactivity (Cage Wash 48-72 hours, #3 male): 0.2
Excretion of Radioactivity (Cage Wash 48-72 hours, Mean): 0.1
Excretion of Radioactivity (Cage Wash 72-96 hours, #1 male): 0.1
Excretion of Radioactivity (Cage Wash 72-96 hours, #2 male): 0.2
Excretion of Radioactivity (Cage Wash 72-96 hours, #3 male): 0.3
Excretion of Radioactivity (Cage Wash 72-96 hours, Mean): 0.2
Excretion of Radioactivity (Cage Wash 96-120 hours, #1 male): 0.1
Excretion of Radioactivity (Cage Wash 96-120 hours, #2 male): 0.2
Excretion of Radioactivity (Cage Wash 96-120 hours, #3 male): 0.2
Excretion of Radioactivity (Cage Wash 96-120 hours, Mean): 0.2
Excretion of Radioactivity (Cage Wash 120-144 hours, #1 male): 0.1
Excretion of Radioactivity (Cage Wash 120-144 hours, #2 male): 0.1
Excretion of Radioactivity (Cage Wash 120-144 hours, #3 male): 0.3
Excretion of Radioactivity (Cage Wash 120-144 hours, Mean): 0.2
Excretion of Radioactivity (Cage Wash 144-168 hours, #1 male): 0.2
Excretion of Radioactivity (Cage Wash 144-168 hours, #2 male): 0.2
Excretion of Radioactivity (Cage Wash 144-168 hours, #3 male): 0.2
Excretion of Radioactivity (Cage Wash 144-168 hours, Mean): 0.2
Recovery of Radioactivity (Cage Washings, 168 hour collection period, #3 male): *1.3 % administered dose
Recovery of Radioactivity (Cage Washings, 168 hour collection period, Mean): ^+1.0 % administered dose
Recovery of Radioactivity (Carcass, at 168 hours, #1 male): 11.3 % administered dose
Recovery of Radioactivity (Carcass, at 168 hours, #2 male): 14.1 % administered dose
Recovery of Radioactivity (Carcass, at 168 hours, #3 male): 14.9 % administered dose
Recovery of Radioactivity (Carcass, at 168 hours, Mean): 13.5 % administered dose
Recovery of Radioactivity (Expired air 1, #1 male): *<0.1 % administered dose
Recovery of Radioactivity (Expired air 1, #2 male): *<0.1 % administered dose
Recovery of Radioactivity (Expired air 1, #3 male): *<0.1 % administered dose
Recovery of Radioactivity (Expired air 1, Mean): ^+<0.1 % administered dose
Recovery of Radioactivity (Expired air 2, #1 male): *<0.1 % administered dose
Recovery of Radioactivity (Expired air 2, #2 male): *<0.1 % administered dose
Recovery of Radioactivity (Expired air 2, #3 male): *<0.1 % administered dose
Recovery of Radioactivity (Expired air 2, Mean): ^+<0.1 % administered dose
Excretion of Radioactivity (Feces 0-24 hours, #1 male): 18.2
Excretion of Radioactivity (Feces 0-24 hours, #2 male): 14.7
Excretion of Radioactivity (Feces 0-24 hours, #3 male): 17.7
Excretion of Radioactivity (Feces 0-24 hours, Mean): 16.9
Excretion of Radioactivity (Feces 0-168 hours, #1 male): 64.0
Excretion of Radioactivity (Feces 0-168 hours, #2 male): 65.7
Excretion of Radioactivity (Feces 0-168 hours, #3 male): 66.7
Excretion of Radioactivity (Feces 0-168 hours, Mean): 65.5
Excretion of Radioactivity (Feces 24-48 hours, #1 male): 16.3
Excretion of Radioactivity (Feces 24-48 hours, #2 male): 17.2
Excretion of Radioactivity (Feces 24-48 hours, #3 male): 14.5
Excretion of Radioactivity (Feces 24-48 hours, Mean): 16.0
Excretion of Radioactivity (Feces 48-72 hours, #1 male): 10.0
Excretion of Radioactivity (Feces 48-72 hours, #2 male): 15.2
Excretion of Radioactivity (Feces 48-72 hours, #3 male): 12.7
Excretion of Radioactivity (Feces 48-72 hours, Mean): 12.6

Reference: patent US20050250801A1, “Method of treating cancer with azaspirane compositions” (priority 2003, published 2005)
